Laboratory results from patent publication US20160051491A1, “NOVEL USE OF PINOSYLVIN FOR ANGIOGENESIS PROMOTION” (INDUSTRY-ACADEMIC COOPERATION FOUNDATION, DANKOOK UNIVERSITY, priority 2013, published 2016).

Legend:
caspase-3 = test: Caspase-3 cleavage (Western blot) and caspase-3 colorimetric activity (Ac-DEVD-pNA) in BAEC lysates; assay type: cell-based, Bovine; details: FIGS. 1C and 1D
Experimental: Caspase-3 activity was measured with Ac-DEVD-pNA as a substrate using the caspase-3 Colorimetric Activity Assay Kit (Chemicon). Specifically, BAECs were grown to confluency in 20% FBS-DMEM and then starved for more than 8 hours. The cells were treated with various apoptotic agents (100 μM ETO) and then lysed. The cell lysates were reacted in a reaction buffer containing 236 μM Ac-DEVD-pNA with or without specific inhibitors (0.1 μM Ac-DEVD-CHO) in 96-well plates at 37° C. for 2 hours. Then, the caspase-3 activity was determined by measuring the absorbance of the reactions at 405 nm using a microplate reader (Bio-Rad, Model 550).
(§1) The BAECs were grown to confluency in 20% FBS-DMEM, washed with ice-cold PBS, scraped in 250 μL RIPA buffer (50 mM Tris, pH 7.5, 150 mM NaCl, 1% NP-40, 0.5% sodium deoxycholate, and 0.1% SDS), and solubilized for 15 minutes to prepare the cell lysates. All the solubilization procedures were performed at 4° C., and the protein content of the soluble cell lysates was measured using a Bio-Rad DC assay kit (Bio-Rad). The solution lysates (10 μg each) were resolved by SDS-PAGE. The resolved protein bands were then transferred to a polyvinylidene difluoride (PVDF) membrane (Bio-Rad) and probed with p-ERK (cell signaling), p-p38 MAP kinase (cell signaling), p-JNK (cell signaling), p-eNOS (cell signaling), p-Akt (cell signaling) and caspase-3 (cell signaling) for 1 hour to overnight. The membranes were then incubated with a secondary antibody at room temperature for 1 hour, where goat anti-rabbit IgG conjugated to alkaline phosphatase was used as a secondary antibody. Finally, the results were confirmed using a chemiluminescent detection method.

[1] = tested on: Bovine aortic endothelial cells (BAECs); test: Etoposide-induced apoptosis, Hoechst 33258 staining of fragmented nuclei; assay type: cell-based; details: FIG. 1B
Experimental: (§2) Bovine aortic endothelial cells (BAECs) were obtained from the descending thoracic aortas, and maintained in a growth medium (DMEM (1 g/L glucose, Life technologies, Inc.) containing 20% fetal bovine […] (FBS, Atlanta Biologicals) without antibiotics) at 37° C. in 5% CO2. The number of cells used for used in this study was between 3 generations and 10 generations, and they were allowed to grow in untreated culture dishes. Before drug treatment, BAECs were grown to confluency in a 5% CO2 incubator with growth media containing 50 μg/mL penicillin and 50 μg/mL streptomycin. The cells were then starved for between 4 hours and 24 hours in starvation media (DMEM supplemented with 0.5% FBS and 50 μg/mL penicillin and 50 μg/mL streptomycin).
For the apoptotic analysis, the confluent cells were incubated in 0.5% FBS-DMEM containing 0 μM or 100 μM etoposide (ETO, Sigma) or varying amounts of pinosylvin for 36 hours. […]
For Hoechst staining, the confluent cells were incubated with 0.5% FBS-DMEM containing 100 μM ETO without any compound (vehicle control) for 36 hours. […] After incubation, the stained cells were thoroughly washed with PBS and the nuclei were observed under a fluorescence microscope (Zeiss Autoplan 2) to confirm the occurrence of apoptosis.

JNK = test: Western blotting of p-JNK in BAECs; assay type: cell-based, Bovine; details: 1 pM pinosylvin, 0 to 60 minutes, serum-depleted BAECs, FIG. 2
Experimental: as §1

[2] = tested on: Bovine aortic endothelial cells (BAECs); test: Endothelial cell proliferation (microscopy, WST-1 assay); assay type: cell-based
Experimental: as §2
Cell proliferation was measured using a cell viability assay kit (Daeil Lab Service Co., LTD., Seoul, Korea). Specifically, confluent BAECs were serum-starved for 16 hours, and then various concentrations of pinosylvin or 20% serum were added and incubated. The cells were washed more than twice with PBS and reacted with the WST-1 reagent. The live cells were then measured at 450 nm using an ELISA microplate reader (Bio-Rad, Model 550).

ERK = test: Western blotting of p-ERK in BAECs; assay type: cell-based, Bovine; details: 1 pM pinosylvin, 0 to 60 minutes, serum-depleted BAECs, FIG. 2
Experimental: as §1

[3] = tested on: Bovine aortic endothelial cells (BAECs); test: Serum starvation-induced apoptosis of endothelial cells (apoptotic cell count under microscope); assay type: cell-based
Experimental: as §2
[…] Since pinosylvin is not commercially available, it was synthesized as described (Park et al., Cell Physiol Biochem. 2011; 27(3-4): 353-62.). […]
Confluent BAECs were starved for more than 4 hours, treated with pinosylvin, and then incubated for an additional period of time (0 hours, 12 hours, 24 hours, and 48 hours) for the evaluation of time-dependent changes in apoptosis. […] For quantification, the present inventors counted the number of apoptotic cells in the same visual field.

[4] = tested on: Bovine aortic endothelial cells (BAECs); test: Endothelial cell migration (wound scrape); assay type: cell-based; details: 1 pM pinosylvin, FIG. 4A
Experimental: Confluent BAECs were treated twice with 2 mM thymidine for 18 hours and wounded with a pipette tip. Then, the cells were incubated in the starvation media for 20 hours with increasing amounts of pinosylvin: 1) no pinosylvin, 2) 1 pM pinosylvin, or 3) 1 pM pinosylvin with 2.5 mM L-NAME, in DMEM, respectively. The migrated cells were observed under a microscope and quantified by counting the number of the migrated cells in the wound area.

eNOS = test: Western blotting of p-eNOS in BAECs; assay type: cell-based, Bovine; details: 1 pM pinosylvin, 0 to 60 minutes, serum-depleted BAECs, FIG. 2
Experimental: as §1

Akt = test: Western blotting of p-Akt in BAECs; assay type: cell-based, Bovine; details: 1 pM pinosylvin, 0 to 60 minutes, serum-depleted BAECs, FIG. 2
Experimental: as §1

p38 MAP kinase = test: Western blotting of p-p38 MAP kinase in BAECs; assay type: cell-based, Bovine; details: 1 pM pinosylvin, 0 to 60 minutes, serum-depleted BAECs, FIG. 2
Experimental: as §1

[5] = tested on: Bovine aortic endothelial cells (BAECs); test: Endothelial tube formation on ECM gel; assay type: cell-based; details: FIG. 4B
Experimental: ECM gel (Cell Biolabs Inc.) was thawed overnight at 4° C. Then, the thawed gel 50 μL was added into each well of the 96-well plates. To form a gel, the 96-well plates were incubated at 37° C. for 1 hour. Then, the BAEC suspension (1.5×10^4 cells/100 μL) containing no pinosylvin, 1 pM pinosylvin, or 1 pM pinosylvin with 2.5 mM L-NAME, in DMEM, respectively, was added into a gel and placed in a 5% CO2 incubator at 37° C. for 12 hours to 18 hours. Then, the endothelial cells were observed under a microscope to confirm tube formation.

| SMILES | caspase-3 activation (caspase-3; 100 μM ETO) | fragmentation of the nuclei (Hoechst 33258 staining) ([1]; cells treated with 100 μM ETO alone) | JNK phosphorylation (JNK) | number of cells compared with untreated cells (microscope) ([2]; 1 pM pinosylvin, thirty percent confluent BAECs, FIG. 3A) | cell proliferation, WST-1 assay ([2]; DMEM with none or 20% serum, 24 hours, FIG. 3B) | ERK phosphorylation (ERK) | starvation-induced apoptosis, apoptotic cells counted per visual field ([3]; 1 pM to 10 μM of pinosylvin, FIG. 1A bottom panel) | serum starvation-induced apoptosis (round and shrunken cells) ([3]; BAECs serum-starved for 72 hours, low dose of pinosylvin, FIG. 1A top panel) | cell migration [4] | eNOS phosphorylation (eNOS) | Akt phosphorylation (Akt) | p38 phosphorylation (p38 MAP kinase) | effect of tube formation by pinosylvin when treated concurrently with L-NAME ([5]; 1 pM pinosylvin with 2.5 mM L-NAME (eNOS inhibitor)) | tube formation compared to the control group ([5]; 1 pM pinosylvin) | ETO-induced caspase-3 activation (caspase-3; 1 pM pinosylvin, 100 μM ETO) | starvation-induced caspase-3 activation (caspase-3; 1 pM pinosylvin, serum-depleted cells) | fragmentation of the nuclei (Hoechst 33258 staining), ETO-induced ([1]; 1 pM pinosylvin together with 100 μM ETO) |
| --- | --- | --- | --- | --- | --- | --- | --- | --- | --- | --- | --- | --- | --- | --- | --- | --- | --- |
| COc1cc([C@@H]2c3cc4c(cc3[C@@H](O[C@@H]3O[C@@H]5CO[C@@H](C)O[C@H]5[C@H](O)[C@H]3O)[C@H]3COC(=O)[C@H]23)OCO4)cc(OC)c1O [ETO, etoposide, reference compound] | activate caspase-3 | detected |  |  |  |  |  |  |  |  |  |  |  |  |  |  |  |
| Oc1cc(O)cc(/C=C/c2ccccc2)c1 [pinosylvin, 5-[(E)-2-phenylethenyl]benzene-1,3-diol] |  |  | remained largely unchanged | increased | promote cell proliferation regardless of the presence of serum | remained largely unchanged | inhibited | prevent serum starvation-induced apoptosis | significantly promote cell migration | substantially promoted | substantially promoted | remained largely unchanged | reduced | significantly increase tube formation | inhibited | inhibited | markedly reduced level |
